Results from patent US6524585B1, “Indolicidin analogs and methods of using same” (The Regents of the University of California, priority 1998, dated 2003).
“Also recorded” adds a separate entry of the source. Non-standard residues stand in square brackets, D forms with d. No end group written: not given here. hSer = N[C@@H](CCO)C(=O)O

Tests used:
Assay type in all cases: cell-based
microorganisms = experiment: antimicrobial activity, microbicidal or microbial inhibition assays (overall statements); conditions: overall statement, microorganism not specified
Description: (§1) The antimicrobial activity of the indolicidin analogs was determined using microbicidal or microbial inhibition assays. The indolicidin analogs initially were characterized using a microbial inhibition method, including a modified plate diffusion assay (Hultmark et al., EMBO J. 2:571-573 (1983); Lehrer et al., J. Immunol. Meth. 137:167-173 (1991), each of which is incorporated herein by reference).
(§2) Nutrient-containing agar (or agarose) plates were seeded with a selected target microorganism and peptide samples (5-10 μl) were placed into small wells formed in the solid medium. Following an initial incubation interval of 1 to 4 hr, the well-containing layer was overlayed with enriched (2× normal) solid medium in order to support microbial growth outside the perimeter of inhibition. After overnight incubation at 30° C. to 37° C., the antimicrobial activity was quantitated by measuring the clear zones around each well (zone of inhibition).
Microbicidal activity was measured by first incubating the target organism with an indolicidin analog in an aqueous suspension, then plating the suspension to quantitate surviving microorganisms. Cultures were grown to mid log phase in an appropriate medium, harvested, washed, and resuspended to 1-2×10^7 colony forming units (CFU) per ml. To conserve peptide, the incubation volume usually was 0.05 ml, with the final cell concentration being 1-2×10^6CFU/ml. Peptide stock solutions, usually made up in 0.01% acetic acid, were diluted in the incubation buffer to a final concentration of 1 μg/ml to 100 μg/ml, and the incubation was initiated by addition of an appropriate volume of the bacterial or fungal stock suspension to the prewarmed (37° C.) peptide-buffer mixture. At timed intervals, 50 μl or 100 μl samples were removed and diluted serially, then plated on nutrient-containing agar plates. Killing activity was quantitated by determining the reduction in CFU relative to appropriate control incubations.

Staphylococccus aureus = experiment: agar diffusion assay (zone of inhibition); conditions: S. aureus
Description: as §1, §2

[1] = test system: fungi such as Cryptococcus; experiment: antimicrobial activity against fungi

Row | Substance | antimicrobial activity (microorganisms) | antimicrobial activity (growth inhibition, zone of inhibition) (Staphylococccus aureus) | antimicrobial activity against fungi such as Cryptococcus [1]
1 | Lys-Trp-Pro-Trp-Trp-Pro-Trp-Arg-Arg-NH2 (KWPWWPWRR-NH2) [Indol 5-13] | broad spectrum antimicrobial activity; also recorded: exhibits antimicrobial activity | – | –
2 | [H2N-]Ile-Leu-Pro-Trp-Lys-Trp-Pro-Trp-Trp-Pro-Trp-Arg-Arg-Hse (ILPWKWPWWPWRRX; C-terminal homoserine; MOD_RES (14) Xaa is homoserine (Hse).) [Indol(1-13)-Hse] | have antimicrobial activity | antimicrobial activity equivalent to that of synthesized Indol 1-13 | –
3 | Trp-Lys-Trp-Pro-Trp-Trp-Pro-Trp-Arg-Arg-NH2 (WKWPWWPWRR-NH2) [Indol 4-13] | broad spectrum antimicrobial activity; also recorded: exhibits antimicrobial activity | – | –
4 | Trp-Pro-Trp-Trp-Pro-Trp-Arg-NH2 (WPWWPWR-NH2) [Indol 6-12] | – | – | substantial antimicrobial activity
5 | Indol 1-13/F-Hse: Indol 1-13/F peptide with a carboxy terminal homoserine, produced by cyanogen bromide cleavage (ILPFKFPFFPFRR[hSer]) | have antimicrobial activity | – | –
6 | Pro-Trp-Lys-Trp-Pro-Trp-Trp-Pro-Trp-Arg-NH2 (PWKWPWWPWR-NH2) [Indol 3-12] | – | – | substantial antimicrobial activity
7 | Leu-Pro-Trp-Lys-Trp-Pro-Trp-Trp-Pro-Trp-Arg-Arg-NH2 (LPWKWPWWPWRR-NH2) [Indol 2-13] | broad spectrum antimicrobial activity; also recorded: exhibits antimicrobial activity | – | –
8 | Trp-Lys-Trp-Pro-Trp-Trp-Pro-Trp-Arg-NH2 (WKWPWWPWR-NH2) [Indol 4-12] | – | – | substantial antimicrobial activity
9 | Leu-Pro-Phe-Lys-Phe-Pro-Phe-Phe-Pro-Phe-Arg-Arg-NH2 (LPFKFPFFPFRR-NH2) [Indol 2-13/F] | exhibits antimicrobial activity | – | –
10 | Pro-Trp-Lys-Trp-Pro-Trp-Trp-Pro-Trp-Arg-Arg-NH2 (PWKWPWWPWRR-NH2) [Indol 3-13] | broad spectrum antimicrobial activity; also recorded: exhibits antimicrobial activity | – | –
11 | Lys-Trp-Pro-Trp-Trp-Pro-Trp-Arg-NH2 (KWPWWPWR-NH2) [Indol 5-12] | – | – | substantial antimicrobial activity
